# Measurements from patent US12187738B2, “Imidazolo derivatives, compositions and methods as orexin antagonists” (HAGER BIOSCIENCES, LLC, priority 2019, dated 2025).
# Experiments:
# [1] = target: T1, human orexin-1 receptor (Homo sapiens, UniProt O43613); experiment: Intracellular calcium measurement (FLIPR), orexin-1 receptor antagonism; assay type: cell-based; conditions: CHO cells expressing human orexin-1 receptor, 3 nM orexin-A agonist; for inhibition at 1 µM: 1 uM compound, read-out: % Inhibition of OX1R @ 1 uM compound; for IC50: read-out: IC50 OX1R; for Kb: read-out: Kb OX1R
# T1 construct: expressed in transfected cells; host or cells: CHO cells (G418 selection)
# T1 sequence (O43613 1-425): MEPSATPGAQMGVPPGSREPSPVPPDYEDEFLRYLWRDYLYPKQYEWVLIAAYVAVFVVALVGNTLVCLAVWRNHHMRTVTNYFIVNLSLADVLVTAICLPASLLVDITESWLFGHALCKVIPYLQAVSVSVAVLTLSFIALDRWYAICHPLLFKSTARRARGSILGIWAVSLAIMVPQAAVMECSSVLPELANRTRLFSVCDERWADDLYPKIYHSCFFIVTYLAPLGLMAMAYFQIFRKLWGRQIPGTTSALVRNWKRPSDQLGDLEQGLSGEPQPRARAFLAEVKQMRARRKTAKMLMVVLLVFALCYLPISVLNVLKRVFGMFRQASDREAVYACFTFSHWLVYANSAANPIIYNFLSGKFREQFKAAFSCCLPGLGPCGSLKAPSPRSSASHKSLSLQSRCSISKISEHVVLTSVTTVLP
# Experimental: (§1) Antagonistic activities on both orexin receptors have been measured for each example compound using the following procedure:
# (§2) In Vitro Assay: Intracellular Calcium Measurements:
# (§3) Chinese hamster ovary (CHO) cells expressing the human orexin-1 receptor and the human orexin-2 receptor, respectively, are grown in culture medium (Ham F-12 with L-Glutamine) containing 300 μg/mL G418, 100 U/mL penicillin, 100 μg/mL streptomycin and 10% heat inactivated fetal calf serum (FCS). The cells are seeded at 20′000 cells/well into 384-well black clear bottom sterile plates (Greiner). The seeded plates are incubated overnight at 37° C. in 5% CO2. Human orexin-A as an agonist is prepared as 1 mM stock solution in MeOH:water (1:1), diluted in HBSS containing 0.1% bovine serum albumin (BSA), NaHCO 3: 0.375 g/L and 20 mM HEPES for use in the assay at a final concentration of 3 nM.
# (§4) Antagonists are prepared as 10 mM stock solution in DMSO, then diluted in 384-well plates using DMSO followed by a transfer of the dilutions into in HBSS containing 0.1% bovine serum albumin (BSA), NaHCO 3: 0.375 g/L and 20 mM HEPES. On the day of the assay, 50 μL of staining buffer (HBSS containing 1% FCS, 20 mM HEPES, NaHCO 3: 0.375 g/L, 5 mM probenecid (Sigma) and 3 μM of the fluorescent calcium indicator fluo-4 AM (1 mM stock solution in DMSO, containing 10% pluronic) is added to each well. The 384-well cell-plates are incubated for 50 min at 37° C. in 5% CO2 followed by equilibration at RT for 30 min before measurement.
# (§5) Within the Fluorescent Imaging Plate Reader (FLIPR Tetra, Molecular Devices), antagonists are added to the plate in a volume of 10 μL/well, incubated for 120 min and finally 10 μL/well of agonist is added. Fluorescence is measured for each well at 1 second intervals, and the height of each fluorescence peak is compared to the height of the fluorescence peak induced by 3 nM orexin-A with vehicle in place of antagonist. The IC50 value (the concentration of compound needed to inhibit 50% of the agonistic response) is determined and may be normalized using the obtained IC50 value of an on-plate reference compound. Optimized conditions were achieved by adjustment of pipetting speed and cell splitting regime. The calculated IC50 values may fluctuate depending on the daily cellular assay performance. Fluctuations of this kind are known to those skilled in the art. In the case where IC50 values have been determined several times for the same compound, the geometric mean has been given.
# [2] = target: T2, human orexin-2 receptor (Homo sapiens, UniProt O43614); experiment: Intracellular calcium measurement (FLIPR), orexin-2 receptor antagonism; assay type: cell-based; conditions: CHO cells expressing human orexin-2 receptor, 3 nM orexin-A agonist; for inhibition at 1 µM: 1 uM compound, read-out: % Inhibition of OX2R @ 1 uM compound
# T2 construct: expressed in transfected cells; host or cells: CHO cells (G418 selection)
# T2 sequence (O43614 1-444): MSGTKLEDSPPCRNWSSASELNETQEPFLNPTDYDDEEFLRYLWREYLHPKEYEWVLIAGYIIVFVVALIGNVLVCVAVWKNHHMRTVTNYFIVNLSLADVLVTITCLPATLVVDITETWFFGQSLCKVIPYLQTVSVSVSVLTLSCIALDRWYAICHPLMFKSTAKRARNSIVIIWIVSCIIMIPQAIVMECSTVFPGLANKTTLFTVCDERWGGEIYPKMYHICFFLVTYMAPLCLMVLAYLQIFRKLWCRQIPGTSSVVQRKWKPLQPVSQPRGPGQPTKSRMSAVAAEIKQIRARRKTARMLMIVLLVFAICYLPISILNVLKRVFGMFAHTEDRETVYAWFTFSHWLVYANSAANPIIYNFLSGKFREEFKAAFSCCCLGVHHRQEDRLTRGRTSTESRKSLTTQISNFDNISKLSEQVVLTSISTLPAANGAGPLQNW
# Experimental: as §1, §2, §3, §4, §5
Structure (SMILES),inhibition at 1 µM [1] [%],inhibition at 1 µM [2] [%],IC50 [1] [µM],Kb [1] [µM],IC50 ([2]; read-out: IC50 OX2R) [µM],Kb ([2]; read-out: Kb OX2R) [µM]
O=C(c1c(-c2ccccc2)nc2occn12)N1CCC[C@H]1Cn1ccc(-c2ccccc2)n1 [Example 1],70.4,26.6,,,,
O=C(c1c(-c2ccccc2)nc2sccn12)N1CCC[C@H]1Cn1ccc(-c2ccccc2)n1 [Example 2],83,39.9,,,,
O=C(c1c(-c2ccccc2)nc2occn12)N1CCC[C@H]1CNc1ccc(C(F)(F)F)cn1 [Example 3],45.8,14.4,,,,
O=C(c1c(-c2ccccc2)nc2sccn12)N1CCC[C@H]1CNc1ccc(C(F)(F)F)cn1 [Example 4],61.1,25.4,,,,
CCc1cnc(NC[C@@H]2CCCN2C(=O)c2c(-c3ccccc3)nc3occn23)nc1 [Example 5],0.5,3.3,,,,
CCc1cnc(NC[C@@H]2CCCN2C(=O)c2c(-c3ccccc3)nc3sccn23)nc1 [Example 6],-5.39,16.2,,,,
CCc1cnc(NC[C@@H]2[C@H](C)CCCN2C(=O)c2c(-c3ccccc3)nc3occn23)nc1 [Example 7],48.1,6.75,,,,
C[C@@H]1CCCN(C(=O)c2c(-c3ccccc3)nc3occn23)[C@@H]1CNc1ccc(C(F)(F)F)cn1 [Example 8],81.6,1.8,0.011,0.002,,
C[C@@H]1CCCN(C(=O)c2c(-c3ccccc3)nc3sccn23)[C@@H]1CNc1ccc(C(F)(F)F)cn1 [Example 9],81.4,10.7,0.018,0.004,,
CCc1cnc(NC[C@@H]2[C@H](C)CCCN2C(=O)c2c(-c3ccccc3)nc3sccn23)nc1 [Example 10],63.5,9.37,0.27,0.057,,
CCc1cnc(NC[C@@H]2CCCN2C(=O)c2c(-c3ccc(F)cc3)nc3sc(C)nn23)nc1 [Example 11],16.1,12,,,,
Cc1nn2c(C(=O)N3CCC[C@@H](C)[C@H]3CNc3ccc(C(F)(F)F)cn3)c(-c3ccc(F)cc3)nc2s1 [Example 12],79.8,11.8,0.013,0.003,,
O=C(c1c(-c2ccccc2F)nc2sccn12)N1CCC[C@H]1CNc1ccc(C(F)(F)F)cn1 [Example 13],62.8,29,,,,
O=C(c1c(-c2ccccc2F)nc2sccn12)N1CCC[C@H]1Cn1ccc(-c2ccccc2)n1 [Example 14],87.4,57,0.012,0.003,1.75,0.241
CCc1cnc(NC[C@@H]2CCCN2C(=O)c2c(-c3ccccc3F)nc3sccn23)nc1 [Example 15],25.1,15.2,,,,
O=C(c1c(-c2ccc(F)cc2)nc2scnn12)N1CCC[C@H]1Cn1ccc(-c2ccccc2)n1 [Example 16],90.3,34.4,0.007,0.0015,,
CCc1cnc(OC[C@@H]2CCCN2C(=O)c2c(-c3ccccc3)nc3occn23)nc1 [Example 17],4.5,8.06,,,,
O=C(c1c(-c2ccccc2)nc2occn12)N1CCC[C@H]1COc1ccc(C(F)(F)F)cn1 [Example 18],37.1,14.9,,,,
